We go through 10 compounds from PubChem BioAssay (NCI).

Structures are written as SMILES.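 96-well plates; 48 h exposure; 5 concentrations. Endpoints by linear interpolation between flanking doses. Not reached: highest tested concentration assigned. TGI marks complete inhibition of growth.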

What all share (assay): NCI-60 cell line screen, 48 h
The test system of experiment [1] is SW-620 colon.
The test system of experiment [2] is COLO 205 colon.
Experiment [3] has as its system HCT-116 colon.
The subject of experiment [4] is EKVX NSCLC.
The test system of experiment [5] is SK-MEL-2 melanoma.
The subject of experiment [6] is MALME-3M melanoma.
Experiment [7] relates to MOLT-4 leukemia.
Experiment [8] relates to HCT-15 colon.
The subject of experiment [9] is SK-MEL-5 melanoma.
Experiment [10] relates to SF-539 CNS.
Experiment [11] relates to A549 NSCLC.
The subject of experiment [12] is K-562 leukemia.
Experiment [13] concerns OVCAR-3 ovarian.
The test system of experiment [14] is NCI-H522 lung.
In experiment [15] the test system is NCI-H226 lung.

As for `Cc1c2c(cc3c1[nH]c1ccccc13)C=NCC2`, the TGI in experiment [1] turned out to be 27.6 µM; in experiment [2], 22.4 µM; in experiment [3], 14.6 µM; in experiment [4] it was 78.9 µM; in experiment [5], 21.1 µM; in [6], 11.7 µM. The TGI in experiment [7] was determined as 24.8 µM; in [8], 61.8 µM; in experiment [9], 12.7 µM; in experiment [10] it was 11.9 µM; in experiment [11], 61.6 µM; in experiment [12] it was 20.8 µM. For the same compound, the TGI in experiment [13] is 11.8 µM; in [14], 41.8 µM; in experiment [15], 50.2 µM.
Consider `COC(=O)C1=C(C)NC2(O)C=CC(=O)C3C(=O)N(c4ccccc4)C(=O)C132` (stereo not given), for which the TGI is more than 100 µM in experiment [1]; more than 100 µM in experiment [2]; more than 100 µM in experiment [3]; more than 100 µM in experiment [4]; more than 100 µM in experiment [5]; 88 µM in [6]. The TGI in [7], in [8], in experiment [9], in [10], in experiment [11] and in [12] was more than 100 µM each time. Besides, the TGI in experiment [13], in [14] and in [15] was more than 100 µM throughout.
For `Clc1ccc(Cc2nc3ccc(CCN4CCN(c5ccccc5)CC4)cc3[nH]2)cc1`, the TGI in experiment [1] was more than 100 µM; in [2] it was 15.3 µM; in [3], 24.6 µM; in experiment [4], 79.9 µM; in [5], 30.6 µM; in [6], 32.9 µM. The TGI in experiment [7] was 40.6 µM; in experiment [8] it was 39.8 µM; in experiment [9], 25.3 µM; in [10], 33.5 µM; in experiment [11] it was 33 µM; in [12], 30.6 µM. In addition, the TGI came to 27 µM in [13], 28.4 µM in experiment [14] and 51.3 µM in experiment [15].
For the compound `CNc1ccc(-c2nc3cc(C)ccc3o2)cc1`, the TGI in experiment [1], in experiment [2], in [3], in experiment [4], in [5] and in experiment [6] was more than 100 µM each time. Also, the TGI in experiment [7], in experiment [8], in [9], in experiment [10], in [11] and in experiment [12] was more than 100 µM throughout. Besides, the TGI in experiment [13], in experiment [14] and in experiment [15] was more than 100 µM throughout.
Consider `CN(C(=O)Cc1ccc(Cl)c(Cl)c1)[C@H]1CCCC[C@@H]1[N+]1(C)CCCC1`, for which the TGI in experiment [1], in [2], in [3], in experiment [4], in [5] and in experiment [6] was more than 100 µM in each case. Also, the TGI in [7], in experiment [8], in experiment [9], in [10], in experiment [11] and in experiment [12] was more than 100 µM in each case. The TGI in [13], in [14] and in experiment [15] was more than 100 µM each time.
Turning to `O=C(NCCCCCCNC(=O)n1cc(F)c(=O)[nH]c1=O)NCCCOCCOCCCNC(=O)C(O)C(O)C(O)C(O)CO` (stereo not given), the TGI in [1], in experiment [2], in experiment [3], in experiment [4], in [5] and in experiment [6] was more than 2.5 µM throughout. In addition, the TGI in experiment [7], in experiment [8], in experiment [9], in experiment [10], in [11] and in experiment [12] was more than 2.5 µM in each case. In addition, the TGI in [13], in [14] and in [15] was more than 2.5 µM each time.
Regarding `Nc1nc2c(c(=O)[nH]1)N(C=O)C(CNc1ccc(C(=O)N[C@@H](CCC(=O)O)C(=O)O)cc1)CN2` (stereo not given in full), the TGI was more than 125 µM in [1]; more than 125 µM in experiment [2]; more than 125 µM in [3]; more than 125 µM in [4]; 49.1 µM in experiment [5]; more than 125 µM in experiment [6]. Moreover, the TGI is more than 125 µM in [7]; more than 125 µM in experiment [8]; more than 125 µM in experiment [9]; more than 125 µM in experiment [10]; more than 125 µM in experiment [11]; more than 31.4 µM in [12]. The TGI in experiment [13], in experiment [14] and in [15] was more than 125 µM throughout.
`O=C(Nc1c[nH]c(=O)[nH]c1=O)C(Cl)Cl`: the TGI in experiment [1], in experiment [2], in [3], in experiment [4], in [5] and in [6] was more than 100 µM each time. Besides, the TGI in experiment [7], in experiment [8], in experiment [9], in experiment [10], in experiment [11] and in experiment [12] was more than 100 µM each time. For the same compound, the TGI in experiment [13], in experiment [14] and in experiment [15] was more than 100 µM in each case.
`CCN(CC)CCCOC(=O)/C=C/c1c(C)[nH]c(=O)[nH]c1=O`: the TGI in experiment [1] is more than 625 µM; in experiment [2] it was more than 625 µM; in experiment [3] it was more than 625 µM; in experiment [4], more than 625 µM; in experiment [5], more than 394 µM; in experiment [6] it was more than 625 µM. The TGI in [7], in experiment [8], in [9], in experiment [10], in experiment [11] and in [12] was more than 625 µM each time. The TGI in experiment [13], in [14] and in [15] was more than 625 µM each time.
`CC(=O)OCC1OC(n2cc(F)c(=O)[nH]c2=O)C(N)C(OC(C)=O)C1OC(C)=O` (stereo not given): the TGI in experiment [1], in experiment [2], in experiment [3], in [4], in experiment [5] and in [6] was more than 100 µM throughout. Further, the TGI in experiment [7], in [8], in experiment [9], in [10], in experiment [11] and in experiment [12] was more than 100 µM throughout. Also, the TGI in [13], in experiment [14] and in [15] was more than 100 µM each time.
